# Source: PubChem BioAssay (NCI)
# “And” between values parts separate entries of the source, which are not always exact repeats. Equal entries are not always repeated.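 48-hour exposure; five concentrations; linearly interpolated endpoints. Here, GI50 denotes the concentration required for 50% inhibition of growth. TGI is the concentration that stops growth completely.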
# Key:
# Assay in all cases: DTP human tumour cell line panel, 48 h
# UO-31 renal = system: UO-31 renal
# COLO 205 colon = system: COLO 205 colon
# CCRF-CEM leukemia = system: CCRF-CEM leukemia
# OVCAR-8 ovarian = system: OVCAR-8 ovarian
# HCC-2998 colon = system: HCC-2998 colon
# HT29 colon = system: HT29 colon
# OVCAR-4 ovarian = system: OVCAR-4 ovarian
# NCI-H460 lung = system: NCI-H460 lung
# A549 NSCLC = system: A549 NSCLC
# ACHN renal = system: ACHN renal
SMILES,TGI (UO-31 renal),TGI (COLO 205 colon),TGI (CCRF-CEM leukemia) [µM],TGI (OVCAR-8 ovarian),TGI (HCC-2998 colon),TGI (HT29 colon),TGI (OVCAR-4 ovarian),TGI (NCI-H460 lung) [µM],TGI (A549 NSCLC) [µM],TGI (ACHN renal) [µM],GI50 (UO-31 renal) [µM],GI50 (COLO 205 colon),GI50 (OVCAR-8 ovarian) [µM],GI50 (HT29 colon) [µM],GI50 (OVCAR-4 ovarian) [nM],GI50 (ACHN renal) [µM],GI50 (NCI-H460 lung) [nM],GI50 (A549 NSCLC) [µM],GI50 (CCRF-CEM leukemia) [nM],GI50 (HCC-2998 colon) [µM]
CCOC(=O)C1=C(Nc2ccccc2)OC/C1=N\NC(=O)Cc1ccccc1,> 50 µM,> 50 µM,> 50,> 50 µM,> 50 µM,> 50 µM,> 50 µM,> 50,> 50,,,,,,,,,,,
Cc1cc2c3ccccc3n(C)c2c2c1C(=O)c1ccccc1C2=O,27.4 µM,56.1 µM,25.5,76.2 µM,43.6 µM,73.2 µM,51.4 µM,,58,,,,,,,,,,,
O=C(c1cc2ccccc2[nH]1)C(O)(c1cc2ccccc2[nH]1)c1cc2ccccc2[nH]1,,> 246 µM,> 246,> 246 µM,> 246 µM,> 246 µM,,> 246,> 246,> 246,,,,,,,,,,
CC(=O)Nc1ccc2nncnc2c1,> 100 µM,> 100 µM,> 100,,,> 100 µM,> 100 µM,> 100,> 100,> 100,,,,,,,,,,
COC(=O)/C(C#N)=C\N1CCN(C(=O)c2ccco2)C1=S,21.3 µM,> 100 µM,,56.2 µM,,55.1 µM,58.8 µM,4.95,37.7,23.3,5.19,31.7 µM,15.5,12.2,23300,4.81,2470,14.6,,
C=CCC(C(=O)OC)C1(C(=O)OC)c2[nH]c3ccccc3c2CCN1Cc1ccccc1 (stereo not drawn),> 100 µM,> 100 µM,> 100,> 100 µM,> 100 µM,> 100 µM,> 100 µM,,> 100,,,,,,,,,,,
CC1=C(N2CC2)C(=O)C(CO)=C(N2CC2)C1=O,0.0231 µM and 0.0319 µM,0.29 µM and 0.23 µM,,0.0701 µM and 0.0799 µM,0.511 µM and 0.29 µM,0.148 µM and 0.435 µM,0.904 µM and 0.587 µM,1.85,,,0.00512,0.135 µM and 0.084 µM,0.0145,,195,0.00047,4.76,,0.612,0.111
Cn1cc(-c2csc(-c3c[nH]c4ncccc34)n2)c2cc(Br)cnc21,,,> 100,> 100 µM,> 100 µM,> 100 µM,,> 100,,> 100,,,3.72,6.75,,2.35,2980,,6810,> 100
Nc1nc(-c2ccccc2)c(-c2ccccc2)c(-c2nc(N)nc(-c3ccccc3)c2-c2ccccc2)n1,> 100 µM,> 100 µM,,> 100 µM,> 100 µM,> 100 µM,> 100 µM,> 100,> 100,> 100,,,,,,,,,,
C/C(=N\NC(=O)CC(=O)Nc1ccc(C)cc1)c1cc2ccccc2oc1=O,> 100 µM,> 100 µM,> 100,> 100 µM,,> 100 µM,,> 100,> 100,> 100,,,,,,,,,,
COc1ccc(/C=C2\N=C(c3ccccc3)OC2=O)c(OCc2ccccc2)c1,> 100 µM,> 100 µM,50.2,72 µM,> 100 µM,,47.7 µM,> 100,> 100,> 100,,,,,,,,,,
C=C1CC[C@@H]2C(C)(C)[C@@H](O)CC[C@@]2(C)[C@@H]1COc1ccc2ccc(=O)oc2c1,22.9 µM,,68.3,78.7 µM,31.1 µM,32.6 µM,21.6 µM,32.4,66.8,29.2,10.2,,,8.61,6970,14.3,14900,8.46,,15.2
COc1cccc(Nc2nc(NNC(=O)Cc3ccccc3)nc(NNC(=O)c3ccncc3)n2)c1,> 100 µM,> 100 µM,> 100,> 100 µM,,> 100 µM,> 100 µM,> 100,> 100,> 100,32.3,> 100 µM,> 100,,> 100000,,> 100000,> 100,> 100000,
C=CCN1C(=O)/C(=c2\sc3n(c2=O)C2C(NN=3)N(CC)C(=O)N2CC)c2ccccc21 (stereo not drawn),,> 20.4 µM,> 100,> 100 µM,> 100 µM,,> 100 µM,> 100,> 100,> 100,,0.549 µM,1.12,0.39,1030,0.834,413,1.21,469,1.28
Cc1ccc(-n2c3c(c4c(CN5CCCCC5)c(O)ccc42)CCc2ccccc2C3=O)cc1,> 100 µM,> 100 µM,,> 100 µM,> 100 µM,,,> 100,> 100,> 100,> 100,> 100 µM,46,,,> 100,> 100000,> 100,,> 100
N=C(N)n1ncc(Cl)c(Cl)c1=O,4.93 µM,3.43 µM,,4.55 µM,,,3.41 µM,31.4,33.6,14.3,,,,,,,,,,
CCOC(=O)CC(=O)ON(C)C(=O)Cc1ccccc1,> 100 µM,> 100 µM,> 100,> 100 µM,,> 100 µM,> 100 µM,> 100,> 100,> 100,,,,,,,,,,
Cc1ccc2nc3c(Cl)cc(=O)cc-3sc2c1,> 100 µM,36.3 µM,19.8,43.4 µM,,91.7 µM,30.7 µM,83.5,43,54.4,,,,,,,,,,
O=C(Nc1cccc(Cl)c1)Nc1cccc(Cl)c1,> 100 µM,,,> 100 µM,,> 100 µM,> 100 µM,,,,> 26,,15.3,2.26,1990,,,,,
COc1ccc(Nc2c3ccccc3nc3c2c2ccccc2n3C)cc1,> 100 µM,> 100 µM,,> 100 µM,,> 100 µM,,> 100,> 100,> 100,> 100,15.2 µM,57.5,13.6,,21.6,5200,17.8,,
COc1ccc(/C=C/C(=O)c2sc(N)nc2C)cc1,> 100 µM,> 100 µM,> 100,> 100 µM,> 100 µM,> 100 µM,,> 100,> 100,,,,,,,,,,,
